From ChEMBL document CHEMBL1130588, “Biaryl acids: novel non-nucleoside inhibitors of HIV reverse transcriptase types 1 and 2” (Bioorg Med Chem Lett, 1998)

Assays:
[1] = target: T1, Human immunodeficiency virus type 1 reverse transcriptase (Human immunodeficiency virus 1, UniProt Q72547); assay: Evaluated for inhibition of HIV-1 reverse transcriptase; Inactive means <50% inhibition at 100 ug/mL concentration
[2] = target: T1, Human immunodeficiency virus type 1 reverse transcriptase; assay: Evaluated for inhibition of HIV-1 reverse transcriptase
[3] = target: T1, Human immunodeficiency virus type 1 reverse transcriptase; assay: Compound was evaluated for inhibition of HIV-1 reverse transcriptase using rC.dG and [3H]dGTP as substrates at 100 ug/ml
[4] = target: T1, Human immunodeficiency virus type 1 reverse transcriptase; assay: Compound was evaluated for inhibition of HIV-1 reverse transcriptase using rC.dG and [3H]dGTP as substrates at 100 ug/mL

| IC50 [2] | Compound | IC50 [1] | further results |
| --- | --- | --- | --- |
|  | O=C(Nc1ccc(Br)cc1C(=O)O)c1cccc(C(=O)Nc2ccc(Br)cc2C(=O)O)n1 | Not Active |  |
| 19 µM | CSc1ccc(NC(=O)CCCCC(=O)Nc2ccc(SC)cc2C(=O)O)c(C(=O)O)c1 |  |  |
|  | O=C(Nc1ccc(Br)cc1C(=O)O)c1cncc(C(=O)Nc2ccc(Br)cc2C(=O)O)c1 | Not Active |  |
|  | CN(CC(=O)Nc1ccc(Br)cc1C(=O)O)CC(=O)Nc1ccc(Br)cc1C(=O)O | Not Active |  |
|  | O=C(CCCCC(=O)Nc1ccccc1C(=O)O)Nc1ccc(Br)cc1 | Not Active |  |
|  | CC(=O)Nc1ccc(NC(=O)CCCCC(=O)Nc2ccc(NC(C)=O)cc2C(=O)O)c(C(=O)O)c1 |  | IC50 [3]: > 100 µM |
| 35 µM | O=C(Nc1ccc(Br)cc1C(=O)O)c1ccc(C(=O)Nc2ccc(Br)cc2C(=O)O)nc1 |  |  |
|  | O=C(CCCCCCC(=O)Nc1ccc(Br)cc1C(=O)O)Nc1ccc(Br)cc1C(=O)O |  | IC50 [4]: 18 µM |
| 10.6 µM | COc1ccc(NC(=O)CCCCC(=O)Nc2ccc(OC)cc2C(=O)O)c(C(=O)O)c1 |  |  |
| 66 µM | O=C(Nc1ccc(Br)cc1C(=O)O)c1ccnc(C(=O)Nc2ccc(Br)cc2C(=O)O)c1 |  |  |
|  | O=C(CCCCC(=O)Nc1ccc(Br)cc1)Nc1ccccc1 | Not Active |  |
| 3.1 µM | O=C(CCCCC(=O)Nc1ccc(Br)cc1C(=O)O)Nc1ccc(Br)cc1C(=O)O |  |  |
|  | O=C(CCCCC(=O)Nc1ccc(Br)cc1C(=O)O)Nc1ccccc1 | Not Active |  |
| > 120 µM | O=C(CCCCC(=O)Nc1ccc(F)cc1C(=O)O)Nc1ccc(F)cc1C(=O)O |  |  |
| 21 µM | O=C(CCCCC(=O)Nc1ccccc1C(=O)O)Nc1ccccc1C(=O)O |  |  |
| > 100 µM | N#Cc1ccc(NC(=O)CCCCC(=O)Nc2ccc(C#N)cc2C(=O)O)c(C(=O)O)c1 |  |  |
| 15 µM | O=C(CCCCC(=O)Nc1ccc(Br)cc1C(=O)O)Nc1ccc(Br)cc1 |  |  |
| 8.7 µM | O=C(CCCCC(=O)Nc1ccc(Cl)cc1C(=O)O)Nc1ccc(Cl)cc1C(=O)O |  |  |
| 9 µM | O=C(CCCCCC(=O)Nc1ccc(Cl)cc1C(=O)O)Nc1ccc(Cl)cc1C(=O)O |  |  |
|  | O=C(CCCCC(=O)Nc1ccccc1C(=O)O)Nc1ccccc1 | Not Active |  |
|  | O=C(COCC(=O)Nc1ccc(Br)cc1C(=O)O)Nc1ccc(Br)cc1C(=O)O | Not Active |  |
| 14 µM | Cc1ccc(NC(=O)CCCCC(=O)Nc2ccc(C)cc2C(=O)O)c(C(=O)O)c1 |  |  |
|  | O=C(Cc1cccc(CC(=O)Nc2ccc(Br)cc2C(=O)O)c1)Nc1ccc(Br)cc1C(=O)O | Not Active |  |
| 8.7 µM | O=C(CCCC(=O)Nc1ccc(Cl)cc1C(=O)O)Nc1ccc(Cl)cc1C(=O)O |  |  |
